US4015974A, “Amido phosphorothiolates” (priority 1972, dated 1977)

Tests used:
Type in all cases: in vivo
radish = assay: Pre-emergence application, herbicidal effect on radish (Table 1); parameters: key: 0: not damaged; 5: completely killed; settings: 20 days after application, score 0-5
Description: (§1) Seeds of barnyard grass (Echinochloa crus-galli) and large crabgrass (Digitaria sanguinalis) as representatives of grassy weeds and those of radish, redroot pigweed (Amaranthus retroflexus), common purslane (Portulaca oleracea) and common lambsquarter (Chenopodium album) as representatives of broad-leaved weeds were individually sowed in flower pots of about 10 cm. in diameter. After covering the seeds with soil, test compounds as shown in Table 1 were individually applied to the soil treatment. Thereafter the plants were grown in a green house and 20 days after application the herbicidal effects of the compounds were observed, the results of which are as shown in Table 1.
(§2) Herbicidal effects were evaluated by the numerals ranging from 0 (not damaged) to 5 (completely killed). All the test compounds were used in the form of wettable powder and diluted with water before application.

rice = assay: Water application, phytotoxicity on rice (Table 2); parameters: key: 0: no effect; 1: very slightly affected; 2: slightly affected; 3: moderately affected; 4: considerably affected; 5: completely killed; settings: 25 days, score 0-5
Description: (§3) Wagner pots of 14 cm. in diameter, which had been packed with 1.5 kg. of paddy field soil, were brought into the state of paddy fields. To the pots were transplanted rice seedlings at the 3-leave stage. Further, seeds of barnyard grass (Echinochloa crus-galli) were sowed in the pots and required amounts of test compounds were applied to the soil under water lodged condition. 25 days after application, the degrees of herbicidal activity and phytotoxity were investigated on above-mentioned plants which had been transplanted and sowed, and on broad-leaved weeds, e.g., monochoria (Monochoria viaginalis Presl.), false pimpernel (Linderna pyxidaria) and toothcup (Rotala indica Koehue), which had been spontaneously germinated. The test compounds were used in the form of wettable powder. The herbicidal effects and the phytotoxity were evaluated as follows by the numerals ranging from 0 to 5.

[1] = test system: broad-leaved weeds, e.g., monochoria, false pimpernel and toothcup; assay: Water application, herbicidal effect on broad-leaved weeds (Table 2); parameters: key: 0: not damaged; 5: completely killed; settings: 25 days, score 0-5
Description: as §3

[2] = test system: barnyard grass (Echinochloa crus-galli); assay: Pre-emergence application, herbicidal effect on barnyard grass (Table 1); parameters: key: 0: not damaged; 5: completely killed; settings: 20 days after application, score 0-5
Description: as §1, §2

[3] = test system: common lambsquarter (Chenopodium album); assay: Pre-emergence application, herbicidal effect on common lambsquarter (Table 1); parameters: key: 0: not damaged; 5: completely killed; settings: 20 days after application, score 0-5
Description: as §1, §2

[4] = test system: redroot pigweed (Amaranthus retroflexus); assay: Pre-emergence application, herbicidal effect on redroot pigweed (Table 1); parameters: key: 0: not damaged; 5: completely killed; settings: 20 days after application, score 0-5
Description: as §1, §2

[5] = test system: large crabgrass (Digitaria sanguinalis); assay: Pre-emergence application, herbicidal effect on large crabgrass (Table 1); parameters: key: 0: not damaged; 5: completely killed; settings: 20 days after application, score 0-5
Description: as §1, §2

[6] = test system: barnyard grass (Echinochloa crus-galli); assay: Water application, herbicidal effect on barnyard grass (Table 2); parameters: key: 0: not damaged; 5: completely killed; settings: 25 days, score 0-5
Description: as §3

[7] = test system: common purslane (Portulaca oleracea); assay: Pre-emergence application, herbicidal effect on common purslane (Table 1); parameters: key: 0: not damaged; 5: completely killed; settings: 20 days after application, score 0-5
Description: as §1, §2

| Structure (SMILES) | Herbicidal effect, radish (radish; 10 g./a.) | Herbicidal effect, radish (radish; 20 g./a.) | Herbicidal effect, radish (radish; 40 g./a.) | Phytotoxicity on rice (rice; 10 g/a) | Phytotoxicity on rice (rice; 20 g/a) | Phytotoxicity on rice (rice; 40 g/a) | Herbicidal effects, broad-leaved weeds ([1]; 10 g/a) | Herbicidal effects, broad-leaved weeds ([1]; 20 g/a) | Herbicidal effects, broad-leaved weeds ([1]; 40 g/a) | Herbicidal effect, barnyard grass ([2]; 10 g./a.) | Herbicidal effect, barnyard grass ([2]; 20 g./a.) | Herbicidal effect, barnyard grass ([2]; 40 g./a.) | Herbicidal effect, common lambsquarter ([3]; 10 g./a.) | Herbicidal effect, common lambsquarter ([3]; 20 g./a.) | Herbicidal effect, common lambsquarter ([3]; 40 g./a.) | Herbicidal effect, redroot pigweed ([4]; 10 g./a.) | Herbicidal effect, redroot pigweed ([4]; 20 g./a.) | Herbicidal effect, redroot pigweed ([4]; 40 g./a.) | Herbicidal effect, large crabgrass ([5]; 10 g./a.) | Herbicidal effect, large crabgrass ([5]; 20 g./a.) | also measured |
| --- | --- | --- | --- | --- | --- | --- | --- | --- | --- | --- | --- | --- | --- | --- | --- | --- | --- | --- | --- | --- | --- |
| CCCCOP(=O)(SCCC(C)C)SCC(=O)N1CCCCC1CC (stereo not drawn) [Compound 99] | 0 | 0 | 0 | 0 | 0 | 0 | 5 | 5 | 5 | 4 | 5 | 5 | 5 | 5 | 5 | 4 | 5 | 5 | 5 | 5 | Herbicidal effect, large crabgrass ([5]; 40 g./a.): 5; Herbicidal effects, barnyard grass ([6]; 10 g/a): 5; Herbicidal effects, barnyard grass ([6]; 20 g/a): 5; Herbicidal effects, barnyard grass ([6]; 40 g/a): 5; Herbicidal effect, common purslane ([7]; 10 g./a.): 5; Herbicidal effect, common purslane ([7]; 20 g./a.): 5; Herbicidal effect, common purslane ([7]; 40 g./a.): 5 |
| CCCCOP(=O)(SCCCC)SCC(=O)N1CCCCC1CC (stereo not drawn) [Compound 95] | 0 | 0 | 0 | 0 | 0 | 0 | 5 | 5 | 5 | 4 | 5 | 5 | 2 | 3 | 4 | 2 | 3 | 3 | 4 | 5 | Herbicidal effect, large crabgrass ([5]; 40 g./a.): 5; Herbicidal effects, barnyard grass ([6]; 10 g/a): 5; Herbicidal effects, barnyard grass ([6]; 20 g/a): 5; Herbicidal effects, barnyard grass ([6]; 40 g/a): 5; Herbicidal effect, common purslane ([7]; 10 g./a.): 2; Herbicidal effect, common purslane ([7]; 20 g./a.): 3; Herbicidal effect, common purslane ([7]; 40 g./a.): 3 |
| CCOP(=O)(SCC)SCC(=O)N1CCCCC1C (stereo not drawn) [Compound 1] | 0 | 0 | 0 | 0 | 0 | 0 | 5 | 5 | 5 | 5 | 5 | 5 | 4 | 4 | 5 | 4 | 5 | 5 | 5 | 5 | Herbicidal effect, large crabgrass ([5]; 40 g./a.): 5; Herbicidal effects, barnyard grass ([6]; 10 g/a): 5; Herbicidal effects, barnyard grass ([6]; 20 g/a): 5; Herbicidal effects, barnyard grass ([6]; 40 g/a): 5; Herbicidal effect, common purslane ([7]; 10 g./a.): 4; Herbicidal effect, common purslane ([7]; 20 g./a.): 4; Herbicidal effect, common purslane ([7]; 40 g./a.): 5 |
| CCCCCSP(=O)(OCC)SCC(=O)N1CCCCC1CC (stereo not drawn) [Compound 78] | 0 | 0 | 0 | 0 | 0 | 0 | 5 | 5 | 5 | 5 | 5 | 5 | 3 | 4 | 5 | 4 | 4 | 5 | 5 | 5 | Herbicidal effect, large crabgrass ([5]; 40 g./a.): 5; Herbicidal effects, barnyard grass ([6]; 10 g/a): 5; Herbicidal effects, barnyard grass ([6]; 20 g/a): 5; Herbicidal effects, barnyard grass ([6]; 40 g/a): 5; Herbicidal effect, common purslane ([7]; 10 g./a.): 4; Herbicidal effect, common purslane ([7]; 20 g./a.): 4; Herbicidal effect, common purslane ([7]; 40 g./a.): 5 |
| CCCCSP(=O)(OCCC)SCC(=O)N1CCCCC1CC (stereo not drawn) [Compound 86] | 0 | 0 | 0 | 0 | 0 | 0 | 5 | 5 | 5 | 5 | 5 | 5 | 5 | 5 | 5 | 4 | 5 | 5 | 5 | 5 | Herbicidal effect, large crabgrass ([5]; 40 g./a.): 5; Herbicidal effects, barnyard grass ([6]; 10 g/a): 5; Herbicidal effects, barnyard grass ([6]; 20 g/a): 5; Herbicidal effects, barnyard grass ([6]; 40 g/a): 5; Herbicidal effect, common purslane ([7]; 10 g./a.): 5; Herbicidal effect, common purslane ([7]; 20 g./a.): 5; Herbicidal effect, common purslane ([7]; 40 g./a.): 5 |
| CCOP(=O)(SCC(=O)N1CCCCC1CC)SC(C)C (stereo not drawn) [Compound 76] | 0 | 1 | 2 | 0 | 0 | 0 | 5 | 5 | 5 | 5 | 5 | 5 | 5 | 5 | 5 | 5 | 5 | 5 | 5 | 5 | Herbicidal effect, large crabgrass ([5]; 40 g./a.): 5; Herbicidal effects, barnyard grass ([6]; 10 g/a): 5; Herbicidal effects, barnyard grass ([6]; 20 g/a): 5; Herbicidal effects, barnyard grass ([6]; 40 g/a): 5; Herbicidal effect, common purslane ([7]; 10 g./a.): 5; Herbicidal effect, common purslane ([7]; 20 g./a.): 5; Herbicidal effect, common purslane ([7]; 40 g./a.): 5 |
| CCCOP(=O)(SC)SCC(=O)N1CCCCC1CC (stereo not drawn) [Compound 83] | 0 | 1 | 2 | 0 | 0 | 0 | 5 | 5 | 5 | 5 | 5 | 5 | 5 | 5 | 5 | 5 | 5 | 5 | 5 | 5 | Herbicidal effect, large crabgrass ([5]; 40 g./a.): 5; Herbicidal effects, barnyard grass ([6]; 10 g/a): 5; Herbicidal effects, barnyard grass ([6]; 20 g/a): 5; Herbicidal effects, barnyard grass ([6]; 40 g/a): 5; Herbicidal effect, common purslane ([7]; 10 g./a.): 5; Herbicidal effect, common purslane ([7]; 20 g./a.): 5; Herbicidal effect, common purslane ([7]; 40 g./a.): 5 |
